Blank lines part the entries; values can stand above or below the compound they belong to.
Molecular target: T1, full length human TPH1 (Homo sapiens, UniProt P17752)
T1 construct: To generate the enzyme, full length human TPH1 is cloned into the plasmid pET20b(+); made in house; host or cells: E. coli
T1 sequence (P17752 1-444): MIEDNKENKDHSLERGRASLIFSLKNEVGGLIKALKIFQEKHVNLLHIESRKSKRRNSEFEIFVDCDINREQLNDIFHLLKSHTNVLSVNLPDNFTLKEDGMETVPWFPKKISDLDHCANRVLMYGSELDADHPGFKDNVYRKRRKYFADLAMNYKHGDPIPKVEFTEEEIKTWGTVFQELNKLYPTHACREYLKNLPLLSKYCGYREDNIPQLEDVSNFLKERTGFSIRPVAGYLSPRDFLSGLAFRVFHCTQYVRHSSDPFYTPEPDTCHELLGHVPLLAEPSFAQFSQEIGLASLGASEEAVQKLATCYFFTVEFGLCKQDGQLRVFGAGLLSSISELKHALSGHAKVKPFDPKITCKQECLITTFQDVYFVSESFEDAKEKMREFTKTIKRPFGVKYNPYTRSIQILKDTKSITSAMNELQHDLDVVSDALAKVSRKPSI
Test: Biochemical in vitro assay using fluorescence readout (TPH1 enzyme activity)
Settings: Table 1, mean where determined several times
Method in brief: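 IC50 (mean of repeats) derived from 5-hydroxy-L-tryptophan fluorescence at 540 nm (300 nm excitation) relative to vehicle, after perchloric acid stop. Reaction: 60 min, 15° C., pH 7.6 Tris-HCl, 40 μM L-tryptophan, 100 μM 6-methyltetrahydropterine, DTT, catalase, with 40-80 nM purified full-length human TPH1 from E. coli.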

IC50: 27 nM
Structure (SMILES): Cc1ccc(C2c3c(nc4n3CCCC4)CCN2C(=O)COc2ccc(C(=O)N(C)C3CC3)nc2Cl)c(F)c1F (stereo not shown) [Example 1.9.3, 6-chloro-N-cyclopropyl-5-(2-(1-(2,3-difluoro-4-methyl-phenyl)-3,4,6,7,8,9-hexahydroimidazo[1,2-a:5,4-c′]di-pyridin-2(1H)-yl)-2-oxoethoxy)-N-methylpicolinamide]

IC50: 16 nM
Structure (SMILES): Cc1ccc(C2c3c(nc4n3CCCC4)CCN2C(=O)COc2ccc(C(=O)NC3CC3)nc2Cl)c(F)c1F (stereo not shown) [Example 1.9.8, 6-chloro-N-cyclopropyl-5-(2-(1-(2,3-difluoro-4-methylphenyl)-3,4,6,7,8,9-hexahydroimidazo[1,2-a:5,4-c′]dipyridin-2(1H)-yl)-2-oxoethoxy)picolinamide]

IC50: 12 nM
Structure (SMILES): Cc1nc(C)c(C2c3c(nc4n3CCCC4)CCN2C(=O)COc2ccc(NS(C)(=O)=O)nc2Cl)s1 (stereo not shown) [Example 1.10.1, N-(6-chloro-5-(2-(1-(2,4-dimethylthiazol-5-yl)-3,4,6,7,8,9-hexahydroimidazo[1,2-a:5,4-c′]dipyridin-2(1H)-yl)-2-oxoethoxy)pyridin-2-yl)methanesulfonamide]

IC50: 82 nM
Structure (SMILES): Cc1nc(C)c(C2c3c(nc4n3CCCC4)CCN2C(=O)COc2ccc(C(=O)N(C)C3CC3)nc2Cl)s1 (stereo not shown) [Example 1.10.2, 6-chloro-N-cyclopropyl-5-(2-(1-(2,4-dimethylthiazol-5-yl)-3,4,6,7,8,9-hexahydroimidazo[1,2-a:5,4-c′]dipyridin-2(1H)-yl)-2-oxoethoxy)-N-methylpicolinamide]

IC50: 16 nM
Structure (SMILES): Cc1nc(C)c(C2c3c(nc4n3CCCC4)CCN2C(=O)COc2ccc(-c3ncco3)nc2Cl)s1 (stereo not shown) [Example 1.10.3, 2-((2-chloro-6-(oxazol-2-yl)pyridin-3-yl)oxy)-1-(1-(2,4-dimethylthiazol-5-yl)-3,4,6,7,8,9-hexahydroimi-dazo[1,2-a:5,4-c′]dipyridin-2(1H)-yl)ethanone]

IC50: 36 nM
Structure (SMILES): CNC(=O)c1ccc(OCC(=O)N2CCc3nc4n(c3C2c2sc(C)nc2C)CCCC4)c(Cl)n1 (stereo not shown) [Example 1.10.4, 6-chloro-5-(2-(1-(2,4-dimethylthiazol-5-yl)-3,4,6,7,8,9-hexahydroimidazo[1,2-a:5,4-c′]dipyridin-2(1H)-yl)-2-oxoethoxy)-N-methylpicolinamide]

IC50: 85 nM
Structure (SMILES): Cc1nc(C)c(C2c3c(nc4n3CCCC4)CCN2C(=O)COc2ccc(C(=O)N(C)C)nc2Cl)s1 (stereo not shown) [Example 1.10.5, 6-chloro-5-(2-(1-(2,4-dimethylthiazol-5-yl)-3,4,6,7,8,9-hexahydroimidazo[1,2-a:5,4-c′]dipyridin-2(1H)-yl)-2-oxoethoxy)-N,N-dimethylpicolinamide]

IC50: 77 nM
Structure (SMILES): Cc1nc(C)c(C2c3c(nc4n3CCCC4)CCN2C(=O)COc2ccc(C#N)nc2Cl)s1 (stereo not shown) [Example 1.10.6, 6-chloro-5-(2-(1-(2,4-dimethylthiazol-5-yl)-3,4,6,7,8,9-hexahydroimidazo[1,2-a:5,4-c′]dipyridin-2(1H)-yl)-2-oxoethoxy)picolinonitrile]

IC50: 177 nM
Structure (SMILES): Cc1nc(C)c(C2c3c(nc4n3CCCC4)CCN2C(=O)COc2ccc(C(F)(F)F)nc2Cl)s1 (stereo not shown) [Example 1.10.7, 2-((2-chloro-6-(trifluoromethyl)pyridin-3-yl)oxy)-1-(1-(2,4-dimethylthiazol-5-yl)-3,4,6,7,8,9-hexahydroimi-dazo[1,2-a:5,4-c′]dipyridin-2(1H)-yl)ethanone]

IC50: 33 nM
Structure (SMILES): Cc1nc(C)c(C2c3c(nc4n3CCCC4)CCN2C(=O)COc2ccc(C3CC3)nc2Cl)s1 (stereo not shown) [Example 1.10.8, 2-((2-chloro-6-cyclopropylpyridin-3-yl)oxy)-1-(1-(2,4-dimethylthiazol-5-yl)-3,4,6,7,8,9-hexahydroimi-dazo[1,2-a:5,4-c′]dipyridin-2(1H)-yl)ethanone]

The remaining lines, values behind:

Structure (SMILES): CCc1nc(NS(C)(=O)=O)ncc1OCC(=O)N1CCc2nc3n(c2C1c1ccc(C2CC2)cc1F)CCCC3 (stereo not shown) [Example 1.8.7, N-(5-(2-(1-(4-cyclopropyl-2-fluorophenyl)-3,4,6,7,8,9-hexahydroimidazo[1,2-a:5,4-c′]dipyridin-2(1H)-yl)-2-oxoethoxy)-4-ethylpyrimidin-2-yl)methanesulfonamide]
IC50: 54 nM

Structure (SMILES): Cc1ccc(C2c3c(nc4n3CCCC4)CCN2C(=O)COc2ccc(-c3ncco3)nc2Cl)c(F)c1F (stereo not shown) [Example 1.9.1, 2-((2-chloro-6-(oxazol-2-yl)pyridin-3-yl)oxy)-1-(1-(2,3-difluoro-4-methylphenyl)-3,4,6,7,8,9-hexahydroimida-zo[1,2-a:5,4-c′]dipyridin-2(1H)-yl)ethanone]
IC50: 20 nM

Structure (SMILES): Cc1ccc(C2c3c(nc4n3CCCC4)CCN2C(=O)COc2ccc(NS(C)(=O)=O)nc2Cl)c(F)c1F (stereo not shown) [Example 1.9.2, N-(6-chloro-5-(2-(1-(2,3-difluoro-4-methylphenyl)-3,4,6,7,8,9-hexahydroimidazo[1,2-a:5,4-c′]dipyridin-2(1H)-yl)-2-oxoethoxy)pyridin-2-yl)methanesulfonamide]
IC50: 26 nM

Structure (SMILES): Cc1ccc(C2c3c(nc4n3CCCC4)CCN2C(=O)COc2ccc(N3CCN(C)CC3)nc2Cl)c(F)c1F (stereo not shown) [Example 1.9.4, 2-((2-chloro-6-(4-methylpiperazin-1-yl)pyridin-3-yl)oxy)-1-(1-(2,3-difluoro-4-methylphenyl)-3,4,6,7,8,9-hexahydroimidazo[1,2-a:5,4-c′]dipyridin-2(1H)-yl)ethanone]
IC50: 18 nM

Structure (SMILES): Cc1ccc(C2c3c(nc4n3CCCC4)CCN2C(=O)COc2ccc(C(F)(F)F)cc2Cl)c(F)c1F (stereo not shown) [Example 1.9.5, 2-(2-chloro-4-(trifluoromethyl)phenoxy)-1-(1-(2,3-difluoro-4-methylphenyl)-3,4,6,7,8,9-hexahydroimidazo[1,2-a:5,4-c′]dipyridin-2(1H)-yl)ethanone]
IC50: 87 nM

Structure (SMILES): Cc1ccc(C2c3c(nc4n3CCCC4)CCN2C(=O)COc2ccc(N3CCCS3(=O)=O)nc2Cl)c(F)c1F (stereo not shown) [Example 1.9.6, 2-((2-chloro-6-(1,1-dioxidoisothiazolidin-2-yl)pyridin-3-yl)oxy)-1-(1-(2,3-difluoro-4-methylphenyl)-3,4,6,7,8,9-hexahydroimidazo[1,2-a:5,4-c′]dipyridin-2(1H)-yl)ethanone]
IC50: 9 nM

Structure (SMILES): CCc1nc(NS(C)(=O)=O)ccc1OCC(=O)N1CCc2nc3n(c2C1c1ccc(C)c(F)c1F)CCCC3 (stereo not shown) [Example 1.9.7, N-(5-(2-(1-(2,3-difluoro-4-methylphenyl)-3,4,6,7,8,9-hexahydroimidazo[1,2-a:5,4-c′]dipyridin-2(1H)-yl)-2-oxoethoxy)-6-ethylpyridin-2-yl)methanesulfonamide]
IC50: 8 nM

Structure (SMILES): CCc1nc(NS(C)(=O)=O)ncc1OCC(=O)N1CCc2nc3n(c2C1c1ccc(C)c(F)c1F)CCCC3 (stereo not shown) [Example 1.9.9, N-(5-(2-(1-(2,3-difluoro-4-methylphenyl)-3,4,6,7,8,9-hexahydroimidazo[1,2-a:5,4-c′]dipyridin-2(1H)-yl)-2-oxoethoxy)-4-ethylpyrimidin-2-yl)methanesulfonamide]
IC50: 58 nM

Structure (SMILES): CCc1nc(C(=O)NC2CC2)ccc1OCC(=O)N1CCc2nc3n(c2C1c1ccc(C)c(F)c1F)CCCC3 (stereo not shown) [Example 1.9.10, N-cyclopropyl-5-(2-(1-(2,3-difluoro-4-methylphenyl)-3,4,6,7,8,9-hexahydroimidazo[1,2-a:5,4-c′]dipyridin-2(1H)-yl)-2-oxoethoxy)-6-ethylpicolinamide]
IC50: 9 nM

Source: patent US10189839B2, “Tricyclic imidazole compounds as inhibitors of tryptophan hydroxylase” (ACTELION PHARMACEUTICALS LTD, priority 2013, dated 2019)
